# Reference: patent EP4567031A1, “HPK1 INHIBITOR, PREPARATION METHOD THEREFOR, AND USE THEREOF” (Beijing Earthwise Technology Co., Ltd., priority 2022, dated 2024)
# Test system: human Pan T cells
# Assay: Human Pan T cell IL-2 ELISA
# Assay type: cell-based
# Details: Anti-CD3 and Anti-CD28, 48 hours, supernatant IL-2 ELISA, read-out: IL-2 release, EC50
# Method: A compound was dissolved in DMSO to 10 mM, and then diluted three-fold with DMSO to 9 dosages in a 96-well plate. Then, 10 µL of the diluted compound sample was transferred to a 96-well plate with 90 µL of cell culture medium, and the plate was shaken for 5 minutes. Then, 5 µL of the diluted compound sample was transferred to a 96-well plate with 120 µL of cell culture medium, and the plate was shaken for 5 minutes. According to the experimental design diagram, 50 µL of the diluted compound sample was transferred to a cell plate. Final concentrations of the compound in this assay were 10000.00, 5000, 2500, 1250, 625, 312.5, 156.25, 78.125 and 39.063 nM.
# The assay was conducted in a 96-well plate. On the first day of the assay, Anti-CD3 was added to the 96-well plate and incubated in a 4 °C refrigerator overnight. On the second day of the assay, human Pan T cells were recovered, centrifuged and counted. The cell density was adjusted to 1*10^6 cells/ml. Then, 100 µL of cells were added to the 96-well plate washed with PBS and added with Anti-CD3; according to the experimental design diagram, 50 µL of diluted Anti-CD28 and 50 µL of the diluted compound were added to each well, centrifuged, and the cell plate was placed and incubated in an incubator for 48 hours; after 48 hours, the plate was centrifuged and the supernatant was collected for IL-2 ELISA.
# The signal value of light absorption was converted into a multiple. Multiple = sample value/the average value of control wells. The average value of control wells refers to the value measured in wells with DMSO added. EC50 values were calculated by XLFit (version 5.3.1.3) in Excel. Equation: Y=Bottom + (Top-Bottom) / (1 + (EC50/X) ^ HillSlope). Table 6. Results of cellular activity of the compounds
row,SMILES,EC50
1,"Cn1c(-c2cc3c(c4c2CNC4=O)Nc2ccc(N4CCOCC4)cc2C3(C)C)cnc1C1CCCO1 (single isomer, unassigned) [Example 191]",28 nM
2,"COC1CCc2c(-c3cc4c(c5c3CNC5=O)Nc3ccc(N5CCOCC5)cc3C4(C)C)cncc21 (single isomer, unassigned) [Example 202]",8.7 nM
3,"COC1CCc2c(-c3cc4c(c5c3CNC5=O)Nc3ccc(N5CCOCC5)cc3C4(C)C)cncc21 (single isomer, unassigned) [Example 203]",95 nM
4,"CCC1(C)c2cc(N3CCOCC3)ccc2Nc2c1cc(-c1cnc3c(OC)nccn13)c1c2C(=O)NC1 (single isomer, unassigned) [Example 213]",19 nM
5,"CC1CCCn2c(-c3cc4c(c5c3CNC5=O)Nc3ccc(N5CCOCC5)cc3C4(C)C)cnc21 (single isomer, unassigned) [Example 218]",19 nM
6,"CC1CCCn2c(-c3cc4c(c5c3CNC5=O)Nc3ccc(N5CCOCC5)cc3C4(C)C)cnc21 (single isomer, unassigned) [Example 219]",8.1 nM
7,"CC1(C)c2cc(N3CCOCC3)ccc2Nc2c1cc(-c1cnc3n1CCCC3O)c1c2C(=O)NC1 (single isomer, unassigned) [Example 228]",11 nM
8,"COC1CCn2c(-c3cc4c(c5c3CNC5=O)Nc3ccc(N5CCOCC5)cc3C4(C)C)cnc21 (single isomer, unassigned) [Example 230]",7.6 nM
9,"CC1(C)c2cc(N3CCOCC3)ccc2Nc2c1cc(-c1cnc3n1CCC(C(F)F)C3)c1c2C(=O)NC1 (single isomer, unassigned) [Example 239]",7.5 nM
10,"CC1(C)c2cc(N3CCOCC3)ccc2Nc2c1cc(-c1cnc3n1CCC(C(F)F)C3)c1c2C(=O)NC1 (single isomer, unassigned) [Example 240]",26 nM

# Same assay, conditions: Homo sapiens, T-cell, 48 h, Anti-CD3 and Anti-CD28, supernatant IL-2 ELISA, read-out: IL-2 release, EC50
row,SMILES,EC50
1,"Cn1c(-c2cc3c(c4c2CNC4=O)Nc2ccc(N4CCOCC4)cc2C3(C)C)cnc1C1CCCO1 (single isomer, unassigned) [Example 190]",53 nM
2,"CCC1(C)c2cc(N3CCOCC3)ccc2Nc2c1cc(-c1cnc3c(OC)nccn13)c1c2C(=O)NC1 (single isomer, unassigned) [Example 212]",11 nM
3,"CC1(C)c2cc(N3CCOCC3)ccc2Nc2c1cc(-c1cnc3n1CCCC3OC1COC1)c1c2C(=O)NC1 (single isomer, unassigned) [Example 220]",50 nM
4,"CC1(C)c2cc(N3CCOCC3)ccc2Nc2c1cc(-c1cnc3n1CCCC3O)c1c2C(=O)NC1 (single isomer, unassigned) [Example 227]",6.4 nM
5,"COC1CCn2c(-c3cc4c(c5c3CNC5=O)Nc3ccc(N5CCOCC5)cc3C4(C)C)cnc21 (single isomer, unassigned) [Example 229]",14 nM
6,"COCC1(O)CCN(c2ccc3c(c2)C(C)(C)c2cc(-c4cnc5n4CCCC5OC)c4c(c2N3)C(=O)NC4)CC1 (single isomer, unassigned) [Example 231]",10.5 nM
7,"CC1(C)c2cc(N3CCOCC3)ccc2Nc2c1cc(-c1cnc3n1CCC(O)C3)c1c2C(=O)NC1 (single isomer, unassigned) [Example 241]",10 nM
8,"CC1(C)c2cc(N3CCOCC3)ccc2Nc2c1cc(-c1cnc3n1CCC(C#N)C3)c1c2C(=O)NC1 (single isomer, unassigned) [Example 242]",8.5 nM
9,"COC1CCCn2c(-c3cc4c(c5c3CNC5=O)Nc3ccc(N5CCC(O)CC5)cc3C4(C)C)cnc21 (single isomer, unassigned) [Example 243]",13 nM
10,"COc1nccn2c(-c3cc4c(c5c3CNC5=O)Nc3ccc(N5CCOCC5C)cc3C4(C)C)cnc12 (single isomer, unassigned) [Example 244]",9.8 nM
11,"COC1CCCn2c(-c3nc4c(c5c3CNC5=O)Nc3ccc(N5CCOCC5)cc3C4(C)C)cnc21 (single isomer, unassigned) [Example 279]",170 nM
12,"CCOC1CCCn2c(-c3cc4c(c5c3CCNC5=O)Nc3ccc(N5CCOCC5)cc3C4(C)C)cnc21 (single isomer, unassigned) [Example 281]",18 nM
13,Cn1ccc2c(-c3cc4c(c5c3CNC5=O)Nc3ccc(N5CCOCC5)cc3C4(C)C)ccnc21 [Example 42],14.2 nM
14,CC1(C)c2cc(N3CCOC(C(C)(C)O)C3)ccc2Nc2c1cc(-c1ccncc1)c1c2C(=O)NC1 (stereo not shown) [Example 43],22.3 nM
15,CN1CCN(c2ccc3c(c2)C(C)(C)c2cc(-c4cnn5cccnc45)c4c(c2N3)C(=O)NC4)CC1 [Example 44],2.47 nM
16,CNC1CCN(c2ccc3c(c2)C(C)(C)c2cc(-c4cnn5cccnc45)c4c(c2N3)C(=O)NC4)CC1 [Example 45],5.28 nM
17,CC1(C)c2cc(N3CCC(O)CC3)ccc2Nc2c1cc(-c1cnn3cccnc13)c1c2C(=O)NC1 [Example 47],4.62 nM
18,CC1(C)c2cc(N3CCOCC3)ccc2Nc2c1cc(-c1cnc3n1CCCC3)c1c2C(=O)NC1 [Example 48],13.5 nM
19,COCC1(O)CCN(c2ccc3c(c2)C(C)(C)c2cc(-c4cnn5cccnc45)c4c(c2N3)C(=O)NC4)CC1 [Example 49],12.7 nM
20,CC1(C)c2cc(N3CCOC(C(C)(C)O)C3)ccc2Nc2c1cc(-c1cnc3c(Cl)cccn13)c1c2C(=O)NC1 (stereo not shown) [Example 99],5.52 nM
21,CC1(C)c2cc(N3CCOC(C(C)(C)O)C3)ccc2Nc2c1cc(-c1cnc3cc(Cl)ccn13)c1c2C(=O)NC1 (stereo not shown) [Example 100],13.1 nM
22,CC1(C)c2cc(N3CCOC(C(C)(C)O)C3)ccc2Nc2c1cc(-c1cnc3cc(C#N)ccn13)c1c2C(=O)NC1 (stereo not shown) [Example 101],5.58 nM
23,COC1CCCn2c(-c3cc4c(c5c3CNC5=O)Nc3ccc(N5CCOC(C(C)(C)O)C5)cc3C4(C)C)cnc21 (stereo not shown) [Example 102],10.8 nM

row,SMILES,EC50
1,CC1CCCn2c(-c3cc4c(c5c3CNC5=O)Nc3ccc(N5CCOC(C(C)(C)O)C5)cc3C4(C)C)cnc21 (stereo not shown) [Example 103],10.4 nM
2,Cc1c(-c2cc3c(c4c2CNC4=O)Nc2ccc(N4CCOC(C(C)(C)O)C4)cc2C3(C)C)cnc2c1NCCO2 (stereo not shown) [Example 104],6.44 nM
3,Cn1c(-c2cc3c(c4c2CNC4=O)Nc2ccc(N4CCOC(C(C)(C)O)C4)cc2C3(C)C)cnc1C1CC1 (stereo not shown) [Example 105],11.6 nM
4,CC1(C)c2cc(N3CCOC(CO)C3)ccc2Nc2c1cc(-c1cnc3cc(F)ccn13)c1c2C(=O)NC1 (stereo not shown) [Example 108],5.58 nM
5,CC1(C)c2cc(N3CCOC(C(C)(C)O)C3)ccc2Nc2c1cc(-c1cnn3cc(F)ccc13)c1c2C(=O)NC1 (stereo not shown) [Example 109],9.18 nM
6,COc1ccn2c(-c3cc4c(c5c3CNC5=O)Nc3ccc(N5CCOC(C(C)(C)O)C5)cc3C4(C)C)cnc2c1 (stereo not shown) [Example 110],15.9 nM
7,CC1(C)c2cc(N3CCOC(C(C)(C)O)C3)ccc2Nc2c1cc(-c1cncc3c1OCCN3)c1c2C(=O)NC1 (stereo not shown) [Example 111],30.8 nM
8,CC1(C)c2cc(N3CCOC(C(C)(C)O)C3)ccc2Nc2c1cc(-c1cnc3cnccn13)c1c2C(=O)NC1 (stereo not shown) [Example 112],4.67 nM
9,CC1(C)c2cc(N3CCOC(C(C)(C)O)C3)ccc2Nc2c1cc(-c1cnc3cc(C(F)F)ccn13)c1c2C(=O)NC1 (stereo not shown) [Example 113],14 nM
10,COc1nccn2c(-c3cc4c(c5c3CNC5=O)Nc3ccc(N5CCOC(C(C)(C)O)C5)cc3C4(C)C)cnc12 (stereo not shown) [Example 114],10.9 nM
11,CC1(C)c2cc(N3CC(CO)OCC3=O)ccc2Nc2c1cc(-c1cnn3cccnc13)c1c2C(=O)NC1 (stereo not shown) [Example 115],91.5 nM
12,CC1(C)c2cc(-c3cnn4cccnc34)c3c(c2Nc2cc(F)c(N4CCOCC4)c(F)c21)C(=O)NC3 [Example 116],65.2 nM
13,CC1(C)c2cc(N3CCOC(CO)C3)ccc2Nc2c1cc(-c1cnn3cccnc13)c1c2C(=O)NC1 (stereo not shown) [Example 118],7.32 nM
14,Cn1cnc2c(-c3cc4c(c5c3CNC5=O)Nc3ccc(N5CCOC(C(C)(C)O)C5)cc3C4(C)C)cncc21 (stereo not shown) [Example 119],8.52 nM
15,CC1(C)c2cc(N3CCOC(C(C)(C)O)C3)ccc2Nc2c1cc(-c1cnn3ccccc13)c1c2C(=O)NC1 (stereo not shown) [Example 122],4.3 nM
16,CC1(C)c2cc(N3CCOC(C(C)(C)O)C3)ccc2Nc2c1cc(-c1cnc3n1CCCCC3)c1c2C(=O)NC1 (stereo not shown) [Example 123],20.3 nM
17,CC1(C)c2cc(-c3cnc4cc(F)ccn34)c3c(c2Nc2ccc(N4CCOC(C(C)(C)O)C4)c(F)c21)C(=O)NC3 (stereo not shown) [Example 124],15.7 nM
18,COCC1CN(c2ccc3c(c2)C(C)(C)c2cc(-c4cnc5c(F)c(C)ccn45)c4c(c2N3)C(=O)NC4)CCO1 (stereo not shown) [Example 131],8.27 nM
19,CC1(C)c2cc(N3CCOCC3)ccc2Nc2c1cc(-c1cnc3cnccn13)c1c2C(=O)NC1 [Example 156],2.76 nM
20,CCOc1nccn2c(-c3cc4c(c5c3CNC5=O)Nc3ccc(N5CCOCC5)cc3C4(C)C)cnc12 [Example 160],12.6 nM
21,CC1(C)c2cc(N3CCOCC3)ccc2Nc2c1cc(-c1cnc3cc(C(F)F)ccn13)c1c2C(=O)NC1 [Example 161],6.36 nM
22,CCc1nccn2c(-c3cc4c(c5c3CNC5=O)Nc3ccc(N5CCOCC5)cc3C4(C)C)cnc12 [Example 164],17 nM
